Laboratory results as given in article PMC5418359, “Topical Ophthalmic Formulation of Trichostatin A and SurR9-C84A for Quick Recovery Post-alkali Burn of Corneal Haze” (Frontiers in Pharmacology, 2017).

What was measured:
[1] = test system: expression of survivin, TGF-beta-1, alpha-SMA and collagen IV in alkali burnt cornea; test: Ex vivo RT-PCR dose ranging in alkali burnt rat eyes; conditions: 1 M NaOH 1 min, treatment 40 min
Method: This procedure was carried out using a previously published protocol ([Lin et al., 2016]). Rat eyes were harvested from humanely killed rats and washed with HBSS. Rat eyes were further incubated with 1 M NaOH for 1 min and then treated with TSA ([…]), SurR9-C84A (0.5, 1.2, and 2.5 mg/kg), pSur/As-Sur ([…]) and empty plasmid (200, 400, and 800 μg/kg) for 40 min. Untreated eyes were maintained as controls. After treatment period, eyes were washed with PBS and total RNA was extracted using the TRIzol® reagent (cat# 15596-026, Thermo Fisher Scientific, Waltham, MA, USA), and complementary DNA (cDNA) was synthesized from RNA using the RevertAid H Minus First Strand cDNA Synthesis Kit (cat# K1631, Thermo Fisher Scientific). Expression of survivin, TGF-beta-1, alpha-SMA and collagen IV was determined by polymerase chain reaction (PCR).

cornea = test: Mean opacity and mean permeability measurements, rat alkali burn model; type: in vivo; conditions: 1 M NaOH 1 min, topical treatment 40 min
Method: The mean in vivo scores was determined using the mean opacity measurements. The rat eyes were excised carefully and carried to the laboratory in HBSS supplemented with penicillin/streptomycin. The measurement of mean opacity was carried out using an opacitometer which measures the transmission of light through the center of each mounted cornea. The mean permeability score was determined by adding a fluorescent (rhodamine solution) on the anterior side of the holder and the corneas were incubated in a horizontal position for 90 min at 32°C. The medium in the posterior chamber was removed and added to 96 well plates and the OD at 490 nm was read. The readings obtained at OD490 were used to determine the permeability of each treatment with respect to the change in the untreated corneas.

[2] = test system: conjunctival layer and corneal matrix; test: H&E histology of corneal segments, rat alkali burn model; type: in vivo; conditions: 1 M NaOH 1 min, topical treatment 40 min
Method: After the completion of the study, all tissues that required to be examined (eyes, brain, kidneys, liver, spleen, heart and lungs) were isolated. The cornea was carefully separated from the eye without damaging it and washed using phosphate buffer saline (PBS). Tissues were fixed using 4% paraformaldehyde (PF) overnight at 4°C and then washed in PBS. The tissue segments were dehydrated in graded ethanol, embedded in paraffin and 5–7 μm thick sections were cut using a microtome. Sections were collected on poly-lysine coated slides using the Leica cryostat and were fixed immediately in ice-cold acetone. All the sections were stained for haematoxylin–eosin (H&E) for critical analysis.

corneal lysate = test: Multianalyte ELISA of inflammatory cytokines in corneal lysate; type: in vivo, rat
Method: The cytokine profiling was performed using the Rat Inflammatory Cytokines & Chemokines Multi-Analyte ELISArray Kit (QIAGEN, USA). Briefly, serial dilutions of the Antigen Standard and the experimental samples were prepared. 50 μL of Assay Buffer was added to each well of the 8-well ELISA strips. Fifty microliters samples and/or standards were added to the appropriate wells of the ELISA strips and incubated for 2 h at room temperature. The ELISA strips were further washed using 350 μL 1 × Washing Buffer thrice. Hundred microliters of Detection Antibody solution was added to the ELISA strips and incubated for 1 h at room temperature. ELISA wells were washed as mentioned above. Hundred microliters of the Avidin–HRP solution was added to all wells and incubated for 30 min at room temperature. ELISA wells were washed as mentioned above. Hundred microliters of Development Solution was added to each well and incubated for 15 min at room temperature in the dark. Hundred microliters of Stop Solution was added to each well. The color changed from blue to yellow. The absorbance at 450 nm was measured within 30 min of stopping the reaction. The estimation of pg/mL of cytokines was performed using the values obtained from antigen standards and a graph was plotted for the cytokine expression with the effect of treatments.

[3] = Ocular and systemic pharmacokinetics of TSA after topical application; conditions: for Concentration of TSA in Aqueous humor / Concentration of TSA in Conjunctiva / Concentration of TSA in Cornea / Concentration of TSA in Plasma / Concentration of TSA in Tear fluid: mean ±SD; for AUC0-8 / AUC0-∞ / Cmax / Tmax / t1/2: rat, topical application
Method: Pharmacokinetic analysis was done using the HPLC System for the levels of TSA in eye tissue and plasma samples was measured using PK methods. PK estimated using standard measurements for maximum concentration (Cmax), time to reach Cmax (Tmax), area under the concentration–time curve (AUC), elimination rate constant (K), elimination half-life (t1/2), apparent clearance (CL/F), apparent volume of distribution (Vd/F).

Blood analysis = type: in vivo; design: HCT / MCH / WBC / RBC / HGB / MCHC: unit not given here; conditions: rat blood
Method: The analysis of blood samples was performed directly using the ABX Micros ES 60 (Horiba Medicals). The parameters analyzed included the number of red blood cells (RBC’s), white blood cells (WBC’s), platelets and hemoglobin content. Briefly, 20 μL of the blood sample was acquired in the instrument and the readings were recorded.

rat corneal tissues = conditions: confocal microscopy
[4] = test system: rat eyes post-alkali burn
[5] = 2 min after topical application in eye
[6] = 10 min after topical application in eye
[7] = 30 min after topical application in eye

CC(/C=C/C(=O)NO)=C\[C@@H](C)C(=O)c1ccc(N(C)C)cc1 [TSA, trichostatin A]
most effective dosage in inhibiting expression of survivin, alpha-SMA, TGF-beta-1 and collagen IV [1]: 0.02 mg/kg | Mean in vitro score (cornea): 0.20 ± 0.5^∗ | Mean opacity measurement (cornea): 0.5 ± 0.2 ^∗ | Predicted irritation potential (cornea): No irritation | corneal tissue integrity (conjunctival layer, corneal matrix), H&E [2]: recovery of the conjunctival layer | GMCSF expression, ELISA (corneal lysate): downregulated effectively | IFN-gamma expression, ELISA (corneal lysate): significant downregulation | IL-1 beta expression, ELISA (corneal lysate): downregulation | IL-2 expression, ELISA (corneal lysate): significantly increased | IL-4 expression, ELISA (corneal lysate): increase | IL-6 expression, ELISA (corneal lysate): downregulated effectively | IL-12 expression, ELISA (corneal lysate): further downregulation | IL-13 expression, ELISA (corneal lysate): downregulated effectively | Rantes expression, ELISA (corneal lysate): significantly downregulated | TNF-alpha expression, ELISA (corneal lysate): downregulated effectively | Concentration of TSA in Aqueous humor [3, 5]: 119.43 ± 37.92 ng/mL | Concentration of TSA in Conjunctiva [3, 5]: 267.88 ± 75.51 µg/g | Concentration of TSA in Cornea [3, 5]: 216.83 ± 78.05 µg/g | Concentration of TSA in Plasma [3, 5]: 103.61 ± 28.37 ng/mL | Concentration of TSA in Tear fluid [3, 5]: 333.42 ± 69.72 µg/g | Concentration of TSA in Aqueous humor [3, 6]: 112.94 ± 15.10 ng/mL | Concentration of TSA in Conjunctiva [3, 6]: 261.29 ± 66.47 µg/g | Concentration of TSA in Cornea [3, 6]: 291.02 ± 109.25 µg/g | Concentration of TSA in Plasma [3, 6]: 263.87 ± 80.96 ng/mL | Concentration of TSA in Tear fluid [3, 6]: 208.93 ± 30.82 µg/g | Concentration of TSA in Conjunctiva [3, 7]: 178.23 ± 35.22 µg/g | Concentration of TSA in Cornea [3, 7]: 762.86 ± 385.68 µg/g | Concentration of TSA in Plasma [3, 7]: 109.16 ± 33.00 ng/mL | Concentration of TSA in Tear fluid [3, 7]: 154.98 ± 73.25 µg/g | AUC0-8 ([3]; Aqueous humor): 7568 µg·h/g | AUC0-∞ ([3]; Aqueous humor): 7689 µg·h/g | Cmax ([3]; Aqueous humor): 11,046 ± 2734 μg/g | Tmax ([3]; Aqueous humor): 20 min | t1/2 ([3]; Aqueous humor): 90 min | AUC0-8 ([3]; Conjunctiva): 53.4 µg·h/g | Cmax ([3]; Conjunctiva): 26.26 ± 7.19 µg/g | Tmax ([3]; Conjunctiva): 5 min | t1/2 ([3]; Conjunctiva): 252 min | AUC0-8 ([3]; Cornea): 45.5 µg·h/g | AUC0-∞ ([3]; Cornea): 55.5 µg·h/g | Cmax ([3]; Cornea): 44.67 ± 12.91 µg/g | Tmax ([3]; Cornea): 5 min | t1/2 ([3]; Cornea): 210 min | AUC0-8 ([3]; Plasma): 65.5 µg·h/g | AUC0-∞ ([3]; Plasma): 68.4 µg·h/g | Cmax ([3]; Plasma): 160.3 ± 61.0 µg/g | Tmax ([3]; Plasma): 10 min | t1/2 ([3]; Plasma): 90 min | AUC0-8 ([3]; Tear fluid): 678.5 µg·h/g | AUC0-∞ ([3]; Tear fluid): 768.5 µg·h/g | Cmax ([3]; Tear fluid): 2,987 ± 1814 μg/g | Tmax ([3]; Tear fluid): 5 min | t1/2 ([3]; Tear fluid): 138 min | HCT (Blood analysis): increased the HCT count to normal range | HGB (Blood analysis): 17.61 ± 1.41 | MCH (Blood analysis): reduced to normal range | MCHC (Blood analysis): 38.15 ± 1.63 | PLT (Blood analysis): 256.33 ± 117 | RBC (Blood analysis): 8.15 ± 0.61 | WBC (Blood analysis): 5.48 ± 2.06 | MCV (Blood analysis; in fL (unit assumed)): 56.66 ± 1.86 | HCT (Blood analysis; listed as NaOH–TSA): 46.2 ± 4.14 | MCH (Blood analysis; listed as NaOH–TSA): 21.63 ± 1.01 | alpha-SMA expression, immunofluorescence (rat corneal tissues): failed to downregulate it effectively | collagen type IV expression, immunofluorescence (rat corneal tissues): most effective in increasing | enhancement of Fibronectin-1 expression, western blot (rat corneal lysates; post-NaOH insult): 1.97 fold | increase in TGF-beta-1 expression, western blot (rat corneal lysates; post-NaOH insult): 1.45 fold | decrease/downregulation of collagen type IV, western blot (rat corneal lysates; rat, in vivo, iv): 2.8 fold | Collagen type IV gene expression, qRT-PCR [4]: efficiently downregulated | Fibronectin-1 gene expression, qRT-PCR [4]: significantly enhanced | IL-1 beta gene expression, qRT-PCR [4]: increase | IL-6 gene expression, qRT-PCR [4]: significantly lowered | MMP-2 gene expression, qRT-PCR [4]: downregulating | TGF-beta-1 gene expression, qRT-PCR [4]: further increase | TNF-alpha gene expression, qRT-PCR [4]: significantly lowered | alpha-SMA gene expression, qRT-PCR [4]: significant increase | alpha-integrin 5 gene expression, qRT-PCR [4]: significant increase
